Test results: patent US20060069132A1, “Azolecarboxamide herbicides” (priority 2004, published 2006)

What was measured:
barnyardgrass [1] = assay: Test B pre-/postemergence herbicide test; type: in vivo, Echinochloa crus-galli; conditions: for Plant response rating (0 to 100 scale), Barnyardgrass: 0 is no effect, preemergence
How it was run: (§1)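 Greenhouse pot assay with simultaneous preemergence (treated seed) and postemergence (2–18 cm seedlings) applications of surfactant-containing, non-phytotoxic solvent formulations. Response scored visually 13–15 days later on a 0–100 scale, 100 meaning complete control.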

Surinam grass = assay: Test B pre-/postemergence herbicide test; type: in vivo, Urochloa decumbens; conditions: for Plant response rating (0 to 100 scale), Surinam Grass: 0 is no effect, 100 is complete control, preemergence
How it was run: (§2)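 Formulation: non-phytotoxic solvent mix with surfactant. Timing: preemergence on seed and postemergence on 2–18 cm plants, applied concurrently. Readout after 13–15 d greenhouse: visual 0–100 control rating against controls.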

cocklebur = assay: Test B pre-/postemergence herbicide test; type: in vivo, Xanthium strumarium; conditions: for Plant response rating (0 to 100 scale), Cocklebur: 0 is no effect, preemergence
How it was run: as §1

corn = assay: Test B pre-/postemergence herbicide test; type: in vivo, Zea mays; conditions: for Plant response rating (0 to 100 scale), Corn: 0 is no effect, preemergence
How it was run: as §2

large crabgrass = assay: Test B pre-/postemergence herbicide test; type: in vivo, Digitaria sanguinalis; conditions: for Plant response rating (0 to 100 scale), Crabgrass, Large: 0 is no effect, preemergence
How it was run: as §2

giant foxtail = assay: Test B pre-/postemergence herbicide test; type: in vivo, Setaria faberi; conditions: for Plant response rating (0 to 100 scale), Foxtail, Giant: 0 is no effect, preemergence
How it was run: as §2

lambsquarters = assay: Test B pre-/postemergence herbicide test; type: in vivo, Chenopodium album; conditions: for Plant response rating (0 to 100 scale), Lambsquarters: 0 is no effect, 100 is complete control, preemergence
How it was run: as §2

morningglory = assay: Test B pre-/postemergence herbicide test; type: in vivo, Ipomoea coccinea; conditions: for Plant response rating (0 to 100 scale), Morningglory: 0 is no effect, 100 is complete control, preemergence
How it was run: as §1

pigweed = assay: Test B pre-/postemergence herbicide test; type: in vivo, Amaranthus retroflexus; conditions: for Plant response rating (0 to 100 scale), Pigweed: 0 is no effect, 100 is complete control, preemergence
How it was run: as §2

velvetleaf = assay: Test B pre-/postemergence herbicide test; type: in vivo, Abutilon theophrasti; conditions: for Plant response rating (0 to 100 scale), Velvetleaf: 0 is no effect, 100 is complete control, preemergence
How it was run: as §2

blackgrass = assay: Test B postemergence herbicide test; type: in vivo, Alopecurus myosuroides
How it was run: (§3)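 Greenhouse test; postemergence application to plants at 1–4 leaves (2–18 cm); paddy species at 2 leaves; evaluated visually vs controls at 13–15 days; scale 0–100 (100 = complete control).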

wheat = assay: Test B postemergence herbicide test; type: in vivo, Triticum aestivum; parameters: key to Wheat plant response rating: 0 = no effect, 100 = complete control
How it was run: as §3

wild oat = assay: Test B postemergence herbicide test; type: in vivo, Avena fatua
How it was run: as §3

rice = assay: Test B flooded paddy test; type: in vivo, Oryza sativa; conditions: scale 0 to 100 (0 no effect, 100 complete control)
How it was run: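 Scale 0–100: zero equals no visible effect, 100 complete control, judged by eye relative to controls. Timing: 13 to 15 days in greenhouse post-treatment. Growth stage at spraying: two leaves (paddy) or one to four leaves, 2–18 cm (postemergence).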

[2] = system: small flower umbrella sedge; assay: Test B flooded paddy test; type: in vivo, Cyperus difformis; conditions: scale 0 to 100 (0 no effect, 100 complete control)
How it was run: as §3

ducksalad = assay: Test B flooded paddy test; type: in vivo, Heteranthera limosa; conditions: scale 0 to 100 (0 no effect, 100 complete control)
How it was run: as §3

barnyardgrass [3] = assay: Test B flooded paddy test; type: in vivo, Echinochloa crus-galli; conditions: scale 0 to 100 (0 no effect, 100 complete control)
How it was run: as §3

[4] = Postemergence, 500 g ai/ha, scale 0 (no effect) to 100 (complete control)
[5] = postemergence, 125 g ai/ha, scale 0 to 100
[6] = 500 g ai/ha, scale 0 to 100, 0 no effect, 100 complete control, preemergence
[7] = 125 g ai/ha, 100 is complete control
[8] = 125 g ai/ha, visual rating, scale 0 (no effect) to 100 (complete control), postemergence
[9] = postemergence, 31 g ai/ha, scale 0 to 100
[10] = postemergence, 500 g ai/ha, scale 0 to 100, 0 is no effect, 100 is complete control

SMILES: CCNC(=O)c1cccc(NC(=O)c2nn(C(C)(C)C)nc2Br)c1 [Compound 434]
- Barnyardgrass plant response rating (barnyardgrass [1]; Postemergence, 125 g ai/ha, scale 0 (no effect) to 100 (complete control)): 10
- Barnyardgrass plant response rating (barnyardgrass [1]; [4]): 30
- Surinam Grass plant response rating (Surinam grass; [4]): 20
- Surinam Grass plant response rating (Surinam grass; [5]): 10
- Cocklebur plant response rating (cocklebur; [4]): 70
- Cocklebur plant response rating (cocklebur; [5]): 50
- Corn plant response rating (corn; [4]): 40
- Corn plant response rating (corn; [5]): 40
- Crabgrass, Large plant response rating (large crabgrass; [4]): 30
- Crabgrass, Large plant response rating (large crabgrass; [5]): 20
- Foxtail, Giant plant response rating (giant foxtail; [4]): 30
- Foxtail, Giant plant response rating (giant foxtail; [5]): 20
- Lambsquarters plant response rating (lambsquarters; [4]): 70
- Lambsquarters plant response rating (lambsquarters; [5]): 40
- Morningglory plant response rating (morningglory; [4]): 70
- Morningglory plant response rating (morningglory; [5]): 60
- Pigweed plant response rating (pigweed; [4]): 60
- Pigweed plant response rating (pigweed; [5]): 40
- Velvetleaf plant response rating (velvetleaf; [4]): 20
- Velvetleaf plant response rating (velvetleaf; [5]): 10
- Blackgrass plant response rating (blackgrass; [4]): 50
- Blackgrass plant response rating (blackgrass; [5]): 30
- Wheat plant response rating (wheat; [6]): 90
- Wheat plant response rating (wheat; [4]): 50
- Wheat plant response rating (wheat; [5]): 40
- Oat, Wild plant response rating (wild oat; [4]): 60
- Oat, Wild plant response rating (wild oat; [5]): 50
- Rice plant response rating (rice; 125 g ai/ha): 70
- Sedge, Umbrella plant response rating ([2]; 125 g ai/ha): 90
- Ducksalad plant response rating (ducksalad; 125 g ai/ha): 70
- Barnyardgrass plant response rating (barnyardgrass [3]; 125 g ai/ha): 60

SMILES: CCOC(=O)c1ccc(F)c(NC(=S)c2cc(C(C)(C)C)nn2CC)c1 [Compound 346]
- Plant response rating (0 to 100 scale), Barnyardgrass (barnyardgrass [1]; [7]): 0
- Barnyardgrass plant response rating (barnyardgrass [1]; [8]): 20
- Barnyardgrass plant response rating (barnyardgrass [1]; [9]): 0
- Plant response rating (0 to 100 scale), Surinam Grass (Surinam grass; 125 g ai/ha): 10
- Surinam Grass plant response rating (Surinam grass; [8]): 10
- Surinam Grass plant response rating (Surinam grass; [9]): 0
- Plant response rating (0 to 100 scale), Cocklebur (cocklebur; [7]): 0
- Cocklebur plant response rating (cocklebur; [8]): 30
- Cocklebur plant response rating (cocklebur; [9]): 10
- Plant response rating (0 to 100 scale), Corn (corn; [7]): 0
- Corn plant response rating (corn; [8]): 0
- Corn plant response rating (corn; [9]): 0
- Plant response rating (0 to 100 scale), Crabgrass, Large (large crabgrass; [7]): 60
- Crabgrass, Large plant response rating (large crabgrass; [8]): 0
- Crabgrass, Large plant response rating (large crabgrass; [9]): 0
- Plant response rating (0 to 100 scale), Foxtail, Giant (giant foxtail; [7]): 50
- Foxtail, Giant plant response rating (giant foxtail; [8]): 20
- Foxtail, Giant plant response rating (giant foxtail; [9]): 0
- Plant response rating (0 to 100 scale), Lambsquarters (lambsquarters; 125 g ai/ha): 0
- Lambsquarters plant response rating (lambsquarters; [8]): 30
- Lambsquarters plant response rating (lambsquarters; [9]): 0
- Plant response rating (0 to 100 scale), Morningglory (morningglory; 125 g ai/ha): 0
- Morningglory plant response rating (morningglory; [8]): 10
- Morningglory plant response rating (morningglory; [9]): 0
- Plant response rating (0 to 100 scale), Pigweed (pigweed; 125 g ai/ha): 0
- Pigweed plant response rating (pigweed; [8]): 70
- Pigweed plant response rating (pigweed; [9]): 60
- Plant response rating (0 to 100 scale), Velvetleaf (velvetleaf; 125 g ai/ha): 0
- Velvetleaf plant response rating (velvetleaf; [8]): 10
- Velvetleaf plant response rating (velvetleaf; [9]): 0
- Blackgrass plant response rating (blackgrass; [8]): 40
- Blackgrass plant response rating (blackgrass; [9]): 30
- Wheat plant response rating (wheat; [8]): 20
- Wheat plant response rating (wheat; [9]): 10
- Oat, Wild plant response rating (wild oat; [8]): 40
- Oat, Wild plant response rating (wild oat; [9]): 30
- Rice plant response rating (rice; 1000 g ai/ha): 40
- Sedge, Umbrella plant response rating ([2]; 1000 g ai/ha): 80
- Ducksalad plant response rating (ducksalad; 1000 g ai/ha): 60
- Barnyardgrass plant response rating (barnyardgrass [3]; 1000 g ai/ha): 40

SMILES: CCNC(=O)c1ccc(F)c(NC(=O)c2nn(C(C)(C)CC)nc2CC)c1 [Compound 370]
- Plant response rating (0 to 100 scale), Barnyardgrass (barnyardgrass [1]; [7]): 10
- Barnyardgrass plant response rating (barnyardgrass [1]; [8]): 0
- Barnyardgrass plant response rating (barnyardgrass [1]; [10]): 0
- Plant response rating (0 to 100 scale), Surinam Grass (Surinam grass; 125 g ai/ha): 0
- Surinam Grass plant response rating (Surinam grass; [8]): 10
- Surinam Grass plant response rating (Surinam grass; [4]): 10
- Plant response rating (0 to 100 scale), Cocklebur (cocklebur; [7]): 0
- Cocklebur plant response rating (cocklebur; [8]): 0
- Cocklebur plant response rating (cocklebur; [10]): 0
- Plant response rating (0 to 100 scale), Corn (corn; [7]): 0
- Corn plant response rating (corn; [8]): 10
- Corn plant response rating (corn; [10]): 10
- Plant response rating (0 to 100 scale), Crabgrass, Large (large crabgrass; [7]): 10
- Crabgrass, Large plant response rating (large crabgrass; [8]): 10
- Crabgrass, Large plant response rating (large crabgrass; [10]): 10
- Plant response rating (0 to 100 scale), Foxtail, Giant (giant foxtail; [7]): 0
- Foxtail, Giant plant response rating (giant foxtail; [8]): 0
- Foxtail, Giant plant response rating (giant foxtail; [10]): 20
- Plant response rating (0 to 100 scale), Lambsquarters (lambsquarters; 125 g ai/ha): 80
- Lambsquarters plant response rating (lambsquarters; [8]): 0
- Lambsquarters plant response rating (lambsquarters; [4]): 20
- Plant response rating (0 to 100 scale), Morningglory (morningglory; 125 g ai/ha): 0
- Morningglory plant response rating (morningglory; [8]): 10
- Morningglory plant response rating (morningglory; [4]): 20
- Plant response rating (0 to 100 scale), Pigweed (pigweed; 125 g ai/ha): 40
- Pigweed plant response rating (pigweed; [8]): 0
- Pigweed plant response rating (pigweed; [4]): 30
- Plant response rating (0 to 100 scale), Velvetleaf (velvetleaf; 125 g ai/ha): 0
- Velvetleaf plant response rating (velvetleaf; [8]): 10
- Velvetleaf plant response rating (velvetleaf; [4]): 20
- Blackgrass plant response rating (blackgrass; [8]): 0
- Blackgrass plant response rating (blackgrass; [10]): 10
- Wheat plant response rating (wheat; [8]): 0
- Wheat plant response rating (wheat; [6]): 0
- Wheat plant response rating (wheat; [4]): 0
- Oat, Wild plant response rating (wild oat; [8]): 0
- Oat, Wild plant response rating (wild oat; [4]): 0
- Rice plant response rating (rice; 1000 g ai/ha): 30
- Sedge, Umbrella plant response rating ([2]; 1000 g ai/ha): 40
- Ducksalad plant response rating (ducksalad; 1000 g ai/ha): 60
- Barnyardgrass plant response rating (barnyardgrass [3]; 1000 g ai/ha): 0

SMILES: CCNC(=O)c1ccc(F)c(NC(=O)c2nn(C(C)(C)C)nc2C)c1 [Compound 377]
- Plant response rating (0 to 100 scale), Barnyardgrass (barnyardgrass [1]; [7]): 0
- Barnyardgrass plant response rating (barnyardgrass [1]; [8]): 0
- Barnyardgrass plant response rating (barnyardgrass [1]; [10]): 0
- Plant response rating (0 to 100 scale), Surinam Grass (Surinam grass; 125 g ai/ha): 0
- Surinam Grass plant response rating (Surinam grass; [8]): 0
- Surinam Grass plant response rating (Surinam grass; [4]): 10
- Plant response rating (0 to 100 scale), Cocklebur (cocklebur; [7]): 0
- Cocklebur plant response rating (cocklebur; [8]): 0
- Cocklebur plant response rating (cocklebur; [10]): 0
- Plant response rating (0 to 100 scale), Corn (corn; [7]): 0
- Corn plant response rating (corn; [8]): 0
- Corn plant response rating (corn; [10]): 10
- Plant response rating (0 to 100 scale), Crabgrass, Large (large crabgrass; [7]): 20
- Crabgrass, Large plant response rating (large crabgrass; [8]): 0
- Crabgrass, Large plant response rating (large crabgrass; [10]): 0
- Plant response rating (0 to 100 scale), Foxtail, Giant (giant foxtail; [7]): 0
- Foxtail, Giant plant response rating (giant foxtail; [8]): 0
- Foxtail, Giant plant response rating (giant foxtail; [10]): 10
- Plant response rating (0 to 100 scale), Lambsquarters (lambsquarters; 125 g ai/ha): 0
- Lambsquarters plant response rating (lambsquarters; [8]): 60
- Lambsquarters plant response rating (lambsquarters; [4]): 70
- Plant response rating (0 to 100 scale), Morningglory (morningglory; 125 g ai/ha): 0
- Morningglory plant response rating (morningglory; [8]): 0
- Morningglory plant response rating (morningglory; [4]): 60
- Plant response rating (0 to 100 scale), Pigweed (pigweed; 125 g ai/ha): 60
- Pigweed plant response rating (pigweed; [8]): 30
- Plant response rating (0 to 100 scale), Velvetleaf (velvetleaf; 125 g ai/ha): 0
- Velvetleaf plant response rating (velvetleaf; [8]): 20
- Velvetleaf plant response rating (velvetleaf; [4]): 40
- Blackgrass plant response rating (blackgrass; [8]): 0
- Blackgrass plant response rating (blackgrass; [10]): 0
- Wheat plant response rating (wheat; [8]): 0
- Wheat plant response rating (wheat; [6]): 20
- Wheat plant response rating (wheat; [4]): 0
- Oat, Wild plant response rating (wild oat; [8]): 0
- Oat, Wild plant response rating (wild oat; [4]): 0
- Rice plant response rating (rice; 1000 g ai/ha): 40
- Sedge, Umbrella plant response rating ([2]; 1000 g ai/ha): 80
- Ducksalad plant response rating (ducksalad; 1000 g ai/ha): 40
- Barnyardgrass plant response rating (barnyardgrass [3]; 1000 g ai/ha): 30
